How the values were obtained:
P2X purinoceptor 3 = target: T1, P2X purinoceptor 3 (Rattus norvegicus, UniProt P49654); assay: Antagonist activity at rat P2X3 receptor expressed in CHO cells; type: functional, cell-based
T1 sequence (P49654 whole entry): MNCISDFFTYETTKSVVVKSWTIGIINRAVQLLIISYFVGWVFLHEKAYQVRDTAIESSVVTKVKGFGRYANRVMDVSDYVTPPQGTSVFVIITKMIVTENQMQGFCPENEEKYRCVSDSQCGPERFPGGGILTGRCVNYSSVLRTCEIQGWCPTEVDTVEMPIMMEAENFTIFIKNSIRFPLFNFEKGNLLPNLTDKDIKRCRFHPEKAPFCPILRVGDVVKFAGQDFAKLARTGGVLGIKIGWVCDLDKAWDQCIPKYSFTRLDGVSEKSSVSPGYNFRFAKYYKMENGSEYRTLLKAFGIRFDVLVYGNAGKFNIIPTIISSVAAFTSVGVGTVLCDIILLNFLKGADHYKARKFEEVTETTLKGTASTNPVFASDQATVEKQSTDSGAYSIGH

Cytochrome P450 2D6 = Cytochrome P450 2D6 (Homo sapiens, UniProt P10635); assay: Inhibition of CYP2D6; type: ADME
P2X purinoceptor 7 = P2X purinoceptor 7 (Homo sapiens, UniProt Q99572); assay: Antagonist activity at P2X7 receptor; type: functional
[1] = Protein binding in rat plasma; type: ADME, cell-free; settings: read-out: PPB (converted)
P2X purinoceptor 5 = P2X purinoceptor 5 (Homo sapiens, UniProt Q93086); assay: Antagonist activity at P2X5 receptor; type: functional
[2] = target: T2, P2X2/P2X3 heterotrimeric receptor (Homo sapiens, UniProt P56373+Q9UBL9); assay: Antagonist activity at human P2X2/P2X3 receptor expressed in human 1321N1C cells; type: functional, cell-based
T2 sequence (Q9UBL9 whole entry): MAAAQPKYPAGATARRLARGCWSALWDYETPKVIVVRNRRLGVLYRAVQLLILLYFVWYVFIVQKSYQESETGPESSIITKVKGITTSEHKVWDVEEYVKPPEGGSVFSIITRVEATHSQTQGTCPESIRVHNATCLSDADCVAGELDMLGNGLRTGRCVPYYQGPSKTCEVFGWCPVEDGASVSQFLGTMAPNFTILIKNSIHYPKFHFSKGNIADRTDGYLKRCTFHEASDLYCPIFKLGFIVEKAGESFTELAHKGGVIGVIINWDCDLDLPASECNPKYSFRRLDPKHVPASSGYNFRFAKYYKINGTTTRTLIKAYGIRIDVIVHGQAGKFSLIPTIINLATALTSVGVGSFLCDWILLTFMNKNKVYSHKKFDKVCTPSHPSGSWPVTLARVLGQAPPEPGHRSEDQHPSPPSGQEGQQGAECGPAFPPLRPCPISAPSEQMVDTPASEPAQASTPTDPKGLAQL
T2 sequence (P56373 whole entry): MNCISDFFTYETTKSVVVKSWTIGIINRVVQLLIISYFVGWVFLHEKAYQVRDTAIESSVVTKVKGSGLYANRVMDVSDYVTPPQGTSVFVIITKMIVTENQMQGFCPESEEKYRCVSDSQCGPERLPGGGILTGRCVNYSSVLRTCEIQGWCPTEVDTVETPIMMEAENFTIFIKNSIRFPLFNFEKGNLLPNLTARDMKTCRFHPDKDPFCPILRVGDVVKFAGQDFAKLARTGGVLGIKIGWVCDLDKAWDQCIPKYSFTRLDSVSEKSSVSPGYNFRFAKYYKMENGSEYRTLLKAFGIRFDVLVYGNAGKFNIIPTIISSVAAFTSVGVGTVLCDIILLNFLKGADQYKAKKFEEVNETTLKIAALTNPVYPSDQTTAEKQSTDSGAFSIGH

P2X purinoceptor 2 = P2X purinoceptor 2 (Homo sapiens, UniProt Q9UBL9); assay: Antagonist activity at P2X2 receptor; type: functional
P2X purinoceptor 6 = P2X purinoceptor 6 (Homo sapiens, UniProt O15547); assay: Antagonist activity at P2X6 receptor; type: functional
Cytochrome P450 3A4 = Cytochrome P450 3A4 (Homo sapiens, UniProt P08684); assay: Inhibition of CYP3A4; type: ADME
P2X purinoceptor 4 = P2X purinoceptor 4 (Homo sapiens, UniProt Q99571); assay: Antagonist activity at P2X4 receptor; type: functional
P2X purinoceptor 1 = P2X purinoceptor 1 (Homo sapiens, UniProt P51575); assay: Antagonist activity at P2X1 receptor; type: functional
P2X purinoceptor 1, sequence (P51575 whole entry): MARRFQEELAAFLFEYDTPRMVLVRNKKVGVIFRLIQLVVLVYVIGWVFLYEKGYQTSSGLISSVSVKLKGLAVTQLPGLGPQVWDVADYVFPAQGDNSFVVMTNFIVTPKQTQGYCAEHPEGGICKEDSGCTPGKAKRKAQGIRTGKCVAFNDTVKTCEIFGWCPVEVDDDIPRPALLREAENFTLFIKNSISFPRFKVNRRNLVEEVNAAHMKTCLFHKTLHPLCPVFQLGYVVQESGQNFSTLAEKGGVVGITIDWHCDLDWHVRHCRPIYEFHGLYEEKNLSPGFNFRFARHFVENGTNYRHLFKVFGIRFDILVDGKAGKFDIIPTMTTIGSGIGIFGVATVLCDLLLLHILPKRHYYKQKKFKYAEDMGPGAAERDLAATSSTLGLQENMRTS

P2X purinoceptor 5, sequence (Q93086 whole entry): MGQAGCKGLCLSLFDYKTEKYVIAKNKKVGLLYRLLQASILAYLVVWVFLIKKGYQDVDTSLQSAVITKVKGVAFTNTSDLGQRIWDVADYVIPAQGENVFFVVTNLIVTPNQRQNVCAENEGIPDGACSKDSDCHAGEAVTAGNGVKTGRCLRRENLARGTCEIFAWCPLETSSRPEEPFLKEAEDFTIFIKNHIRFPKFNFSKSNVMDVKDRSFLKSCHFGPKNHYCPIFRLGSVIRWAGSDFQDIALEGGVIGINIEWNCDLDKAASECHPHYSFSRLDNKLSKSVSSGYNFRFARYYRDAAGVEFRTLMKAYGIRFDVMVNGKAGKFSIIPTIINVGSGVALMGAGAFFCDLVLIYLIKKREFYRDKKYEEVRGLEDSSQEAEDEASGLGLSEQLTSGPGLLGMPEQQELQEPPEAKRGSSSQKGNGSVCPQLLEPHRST
Cytochrome P450 2D6, sequence (P10635 whole entry): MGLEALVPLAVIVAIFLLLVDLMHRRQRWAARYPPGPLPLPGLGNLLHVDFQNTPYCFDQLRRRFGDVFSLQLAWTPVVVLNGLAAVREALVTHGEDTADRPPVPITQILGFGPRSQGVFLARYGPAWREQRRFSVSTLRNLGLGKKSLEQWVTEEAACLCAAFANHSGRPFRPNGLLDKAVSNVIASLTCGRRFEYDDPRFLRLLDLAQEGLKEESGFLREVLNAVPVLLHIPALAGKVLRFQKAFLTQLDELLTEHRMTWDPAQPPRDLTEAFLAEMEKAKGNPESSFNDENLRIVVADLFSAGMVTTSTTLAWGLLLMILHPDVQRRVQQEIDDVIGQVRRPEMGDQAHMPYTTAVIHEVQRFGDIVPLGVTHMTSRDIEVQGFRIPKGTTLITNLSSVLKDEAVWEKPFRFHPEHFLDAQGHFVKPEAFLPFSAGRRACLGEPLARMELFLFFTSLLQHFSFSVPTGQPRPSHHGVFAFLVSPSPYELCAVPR
P2X purinoceptor 7, sequence (Q99572 whole entry): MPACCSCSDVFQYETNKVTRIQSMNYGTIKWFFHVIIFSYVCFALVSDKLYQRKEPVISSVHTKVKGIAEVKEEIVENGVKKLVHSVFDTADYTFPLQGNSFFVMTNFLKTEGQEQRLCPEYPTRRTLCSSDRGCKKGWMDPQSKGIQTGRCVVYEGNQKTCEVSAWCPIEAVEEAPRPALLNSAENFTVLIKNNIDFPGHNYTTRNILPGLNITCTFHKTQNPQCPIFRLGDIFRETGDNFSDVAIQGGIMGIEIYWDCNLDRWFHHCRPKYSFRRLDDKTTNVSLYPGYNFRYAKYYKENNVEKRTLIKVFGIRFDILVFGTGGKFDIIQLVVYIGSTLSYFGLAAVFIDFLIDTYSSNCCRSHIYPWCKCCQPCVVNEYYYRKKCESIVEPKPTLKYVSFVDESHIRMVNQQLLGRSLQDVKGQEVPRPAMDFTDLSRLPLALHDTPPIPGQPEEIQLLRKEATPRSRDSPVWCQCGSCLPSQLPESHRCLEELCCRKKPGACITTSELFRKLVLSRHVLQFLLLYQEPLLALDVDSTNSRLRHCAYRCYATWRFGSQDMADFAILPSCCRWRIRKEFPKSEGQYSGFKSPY
Cytochrome P450 3A4, sequence (P08684 whole entry): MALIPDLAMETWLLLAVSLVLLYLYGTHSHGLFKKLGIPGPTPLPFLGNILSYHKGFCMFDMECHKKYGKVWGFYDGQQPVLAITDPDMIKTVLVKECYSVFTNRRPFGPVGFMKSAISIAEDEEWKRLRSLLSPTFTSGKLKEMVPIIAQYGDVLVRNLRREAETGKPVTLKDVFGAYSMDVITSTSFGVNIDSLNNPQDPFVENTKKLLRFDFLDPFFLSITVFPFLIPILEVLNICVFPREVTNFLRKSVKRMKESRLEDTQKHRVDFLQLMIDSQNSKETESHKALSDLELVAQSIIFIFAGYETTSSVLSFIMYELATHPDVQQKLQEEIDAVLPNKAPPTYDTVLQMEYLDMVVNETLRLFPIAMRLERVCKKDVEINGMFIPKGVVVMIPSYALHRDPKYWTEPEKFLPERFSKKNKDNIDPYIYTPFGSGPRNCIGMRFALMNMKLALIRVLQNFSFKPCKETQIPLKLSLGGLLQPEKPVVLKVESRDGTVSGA
P2X purinoceptor 6, sequence (O15547 whole entry): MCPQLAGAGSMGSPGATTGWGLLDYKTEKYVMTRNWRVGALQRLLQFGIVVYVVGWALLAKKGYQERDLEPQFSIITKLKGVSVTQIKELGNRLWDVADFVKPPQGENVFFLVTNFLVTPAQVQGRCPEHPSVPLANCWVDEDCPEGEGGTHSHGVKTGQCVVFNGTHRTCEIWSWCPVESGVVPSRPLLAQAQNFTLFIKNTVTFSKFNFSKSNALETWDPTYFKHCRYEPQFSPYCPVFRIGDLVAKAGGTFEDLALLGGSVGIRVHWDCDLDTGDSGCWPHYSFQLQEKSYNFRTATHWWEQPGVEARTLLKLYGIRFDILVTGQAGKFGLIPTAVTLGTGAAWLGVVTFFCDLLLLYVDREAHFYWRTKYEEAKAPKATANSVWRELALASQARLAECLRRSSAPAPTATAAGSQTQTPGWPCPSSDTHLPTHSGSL
P2X purinoceptor 4, sequence (Q99571 whole entry): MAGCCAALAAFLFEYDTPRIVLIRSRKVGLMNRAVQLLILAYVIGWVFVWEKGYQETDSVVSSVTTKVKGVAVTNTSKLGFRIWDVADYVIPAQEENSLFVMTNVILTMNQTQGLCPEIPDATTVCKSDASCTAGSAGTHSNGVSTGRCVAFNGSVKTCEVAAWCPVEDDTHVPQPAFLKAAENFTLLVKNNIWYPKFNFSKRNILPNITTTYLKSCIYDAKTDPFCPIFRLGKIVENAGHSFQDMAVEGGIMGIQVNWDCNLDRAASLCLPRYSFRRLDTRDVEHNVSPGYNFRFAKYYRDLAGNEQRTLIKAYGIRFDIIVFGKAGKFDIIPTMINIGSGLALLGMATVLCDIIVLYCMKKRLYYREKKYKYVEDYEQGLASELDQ

SMILES | IC50 (P2X purinoceptor 3) [µM] | IC50 [2] [µM] | further results
CC(CN1CCN(c2ncccn2)CC1)NC(=O)c1cc2c(-c3ccccc3)nn(-c3ccccc3)c2s1 (stereo unspecified) | > 10 | – | –
CC(CN1CCN(c2ncccn2)CC1)NC(=O)c1cc2c(-c3ccccc3F)nn(C)c2s1 (stereo unspecified) | 0.0631 | – | –
CCn1nc(-c2ccccc2)c2cc(C(=O)NC(C)CN3CCN(c4ncccn4)CC3)sc21 (stereo unspecified) | 0.501 | – | –
CC(CN1CCN(c2ncccn2)CC1)NC(=O)c1nc(-c2ccccc2)cc(-c2ccccc2)n1 (stereo unspecified) | 5.01 | > 10 | –
Cc1nc(-c2ccccc2)oc1C(=O)NC(C)CN1CCN(c2ncccn2)CC1 (stereo unspecified) | 5.01 | > 10 | –
CC(CN1CCN(c2ncccn2)CC1)NC(=O)c1oc(-c2ccccc2)cc1-c1ccccc1 (stereo unspecified) | 0.631 | > 10 | –
CC(CN1CCN(c2ncccn2)CC1)NC(=O)c1cn(-c2ccccc2)nc1-c1ccccc1 (stereo unspecified) | 1 | > 10 | –
CC(CN1CCN(c2ncccn2)CC1)NC(=O)c1cc(-c2ccccc2)nn1-c1ccccc1 (stereo unspecified) | 1 | > 10 | –
CCCc1nc(-c2ccc(F)cc2)oc1C(=O)N[C@H](C)CN1CCN(C(=O)OCC)CC1 | > 10 | > 10 | –
Cc1c(C(=O)NC(C)CN2CCN(c3ncccn3)CC2)c(-c2ccccc2)nn1-c1ccccc1 (stereo unspecified) | > 10 | > 10 | –
CC(CN1CCN(c2ncccn2)CC1)NC(=O)c1cccc(-c2ccc(F)cc2)c1 (stereo unspecified) | 0.126 | > 10 | –
CC(=O)N1CCN(CC(C)NC(=O)c2cc3c(-c4ccccc4)nn(C)c3s2)CC1 (stereo unspecified) | 0.1 | – | –
CC(CN1CCN(c2ncccn2)CC1)NC(=O)c1sc(-c2ccccc2)nc1-c1ccccc1 (stereo unspecified) | > 10 | > 10 | –
CCCc1nc(-c2ccc(F)cc2)oc1C(=O)N[C@H](C)CN1CCN(C(=O)C2CC2)CC1 | > 10 | > 10 | –
Cc1c(C(=O)NC(C)CN2CCN(c3ncccn3)CC2)cc(-c2ccccc2)n1-c1ccccc1 (stereo unspecified) | 2 | > 10 | –
CC(CN1CCN(c2ncccn2)CC1)NC(=O)c1cc(-c2ccc(F)cc2)cc(-c2ccc(F)cc2)c1 (stereo unspecified) | 0.398 | > 10 | –
CCCc1nc(-c2ccc(F)cc2)oc1C(=O)N[C@H](C)CN1CCN(C(=O)NC)CC1 | > 10 | > 10 | –
Cc1ccccc1-c1nn(C)c2sc(C(=O)NC(C)CN3CCN(c4ncccn4)CC3)cc12 (stereo unspecified) | 2 | – | –
Cc1nn(-c2ccccc2)c2sc(C(=O)NC(C)CN3CCN(c4ncccn4)CC3)cc12 (stereo unspecified) | 10 | – | –
CC(CN1CCN(c2ncccn2)CC1)NC(=O)c1cc(-c2ccccc2)n(-c2ccccc2)n1 (stereo unspecified) | 1.26 | > 10 | –
CC(CN1CCN(c2ncccn2)CC1)NC(=O)c1cc2c(-c3ccccc3)nn(C)c2s1 (stereo unspecified) | 0.2 | > 10 | –
CC(CN1CCN(c2ncccn2)CC1)NC(=O)c1cc2c(-c3ccccc3)nn(C)c2o1 (stereo unspecified) | > 10 | – | –
CC(CN1CCN(c2ncccn2)CC1)NC(=O)c1nc(-c2ccccc2)oc1-c1ccccc1 (stereo unspecified) | 3.98 | > 10 | –
CC(=O)N1CCN(CC(C)NC(=O)c2cc3c(-c4ccccc4F)nn(C)c3s2)CC1 (stereo unspecified) | 0.0398 | – | –
CC(=O)N1CCN(CC(C)NC(=O)c2cc3c(-c4ccc(C)cc4)nn(C)c3s2)CC1 (stereo unspecified) | 0.0398 | – | –
CC(CN1CCN(c2ncccn2)CC1)NC(=O)c1cc(Br)cc(-c2ccc(F)cc2)c1 (stereo unspecified) | 0.501 | > 10 | –
CC(CN1CCN(c2ncccn2)CC1)NC(=O)c1oc(-c2ccccc2)nc1-c1ccccc1 (stereo unspecified) | 1.26 | > 10 | –
CC(CN1CCN(c2ncccn2)CC1)NC(=O)c1cc(-c2ccccc2)nc(-c2ccccc2)c1 (stereo unspecified) | 1.26 | > 10 | –
CC(CN1CCN(c2ncccn2)CC1)NC(=O)c1cc(-c2ccccc2)oc1-c1ccccc1 (stereo unspecified) | 2 | > 10 | –
CC(CN1CCN(c2ncccn2)CC1)N1Cc2c(c(-c3ccccc3)nn2-c2ccc(F)cc2)C1=O (stereo unspecified) | > 10 | – | –

Continued, in another order:

IC50 (P2X purinoceptor 3) [µM] | IC50 [2] [µM] | SMILES | further results
0.251 | > 10 | CCCc1nc(-c2ccccc2)oc1C(=O)NC(C)CN1CCN(c2ncccn2)CC1 (stereo unspecified) | IC50 (Cytochrome P450 2D6): < 10 µM; IC50 (P2X purinoceptor 7): > 10 µM; fraction unbound [1]: < 0.01; IC50 (P2X purinoceptor 5): > 10 µM; IC50 (P2X purinoceptor 2): > 10 µM; IC50 (P2X purinoceptor 6): > 10 µM; IC50 (Cytochrome P450 3A4): < 10 µM; IC50 (P2X purinoceptor 4): > 10 µM; IC50 (P2X purinoceptor 1): > 10 µM
1.26 | > 10 | CCCc1nc(-c2ccc(F)cc2)oc1C(=O)N[C@H](C)CN1CCN(c2ccncn2)CC1 | –
2.51 | > 10 | CCCc1nc(-c2ccc(F)cc2)oc1C(=O)N[C@H](C)CN1CCN(C(=O)c2ccco2)CC1 | –
0.501 | > 10 | CCCc1cc(C(=O)NC(C)CN2CCN(c3ncccn3)CC2)cc(-c2ccc(F)cc2)c1 (stereo unspecified) | –
2.51 | – | CCCc1nc(-c2ccc(F)cc2)oc1C(=O)NC(C)CN1CCCN(c2ncccn2)CC1 (stereo unspecified) | –
> 10 | > 10 | CCCc1nc(-c2ccc(F)cc2)oc1C(=O)N[C@H](C)CN1CCN(S(C)(=O)=O)CC1 | –
0.398 | > 10 | CCCc1nc(-c2ccc(F)cc2)oc1C(=O)N[C@H](C)CN1CCN(C(C)=O)CC1 | –
0.631 | > 10 | CCCc1nc(-c2ccc(F)cc2)oc1C(=O)NC(C)CN1CCN(c2nccs2)CC1 (racemic) | –
> 10 | – | CCCc1nc(-c2ccc(F)cc2)oc1CNC(C)CN1CCN(c2ncccn2)CC1 (stereo unspecified) | –
> 10 | > 10 | CCCc1nc(-c2ccc(F)cc2)oc1C(=O)N[C@H](C)CN1CCN(c2ccncc2)CC1 | –
> 10 | > 10 | CCCc1nc(-c2ccc(F)cc2)oc1C(=O)NC(C)CN1CCN(c2ccccn2)CC1 (racemic) | –
> 10 | – | CCCc1nc(-c2ccc(F)cc2)oc1COC(C)CN1CCN(c2ncccn2)CC1 (stereo unspecified) | –
> 10 | – | CCCc1nc(-c2ccc(F)cc2)oc1C(=O)NC(CC)CN1CCN(c2ncccn2)CC1 (stereo unspecified) | –
2 | > 10 | CCCc1nc(-c2ccc(F)cc2)oc1C(=O)N[C@@H](C)CN1CCN(c2ncccn2)CC1 | –
1 | > 10 | CCCc1nc(-c2ccc(F)cc2)oc1C(=O)N[C@H](C)CN1CCN(C(N)=O)CC1 | –
0.0501 | > 10 | CCCc1nc(-c2ccc(F)cc2)oc1C(=O)N[C@H](C)CN1CCN(c2ncccn2)CC1 | –
> 10 | – | CCCc1nc(-c2ccc(F)cc2)oc1C(=O)NCCN1CCN(c2ncccn2)CC1 | –
> 10 | – | CCCc1nc(-c2ccc(F)cc2)oc1C(=O)N(C)CCN1CCN(c2ncccn2)CC1 | –
1.58 | > 10 | CCCc1nc(-c2ccc(F)cc2)oc1C(=O)N[C@H](C)CN1CCN(c2ccccn2)CC1 | –
0.1 | > 10 | CCCc1nc(-c2ccc(F)cc2)oc1C(=O)NC(C)CN1CCN(C(C)=S)CC1 (racemic) | –
0.501 | > 10 | CCCc1nc(-c2ccc(F)cc2)oc1C(=O)N[C@H](C)CN1CCN(c2cnccn2)CC1 | –
> 10 | – | CCCc1nc(-c2ccc(F)cc2)oc1C(=O)NC(C)(C)CN1CCN(c2ncccn2)CC1 | –
